The values below come from patent US20230058634A1, “PREVENTION OF PLATELET ACTIVATION AND CELL DIFFERENTIATION DURING THE PROCESSING OF BLOOD AND BLOOD-RELATED COMPOSITIONS” (GPB Scientific, Inc., priority 2020, published 2023).

Data set [1] has as its system cell aggregates. Kind of data set: Cell aggregates in apheresis product after 24 h, glass slide under microscope. In kind it is cell-based. The conditions noted are these: FIG. 10, 14 mM Citrate, GSK484 10 micromolar, DTPA 10 micromolar, Tirofiban 2.5 micrograms/ml.
Protocol: FIG. 9: An apheresis product is collected in 14 mM Citrate and divided into two different tubes—one with no further addition and a second tube with additional citrate for a final concentration of 28 mM (2X ACD-A). The tubes are left overnight at room temperature under rotation. After 24 h, aliquots of the tubes are spotted on a glass slide and are analyzed under the microscope for the presence of cell aggregates.
FIG. 10: An apheresis product is collected in 14 mM Citrate (ACD-A) and aliquots are taken and incubated with the different inhibitors, or in combination, in different tubes for 24 h. The tubes are left under rotation at room temperature. After 24 h, aliquots of the different tubes are spotted on a glass slide and are analyzed under a microscope for the presence of cell aggregates.
For data set [2], the system named is cultured cells. The conditions noted are these: at micromolar concentrations; cited from earlier work.
The subject of data set [3] is CD45+ cells. Kind of data set: Cell viability in apheresis product by flow cytometry (CD45-PerCP and 7-AAD; % CD45+ cells). Format: cell-based. The following applies: FIG. 7 lower panel; 14 mM Citrate, overnight; A23187 at 4 micromolar in DMEM media. The protocol: Cell viability may be determined by flow cytometry using CD45-PerCP and 7-AAD.
FIG. 7: An apheresis product is collected into 14 mM Citrate (ACD-A). […] The calcium ionophore A23187 is used at 4 micromolar in apheresis material resuspended in DMEM media. […] Determination of singlets and aggregates may be done by flow cytometry using side and forward scatter of the CD45+ cell population. Cell viability is determined as the % CD45+ cells.

Data set [4] relates to CD45+ cell population. Kind of data set: Singlets and aggregates in apheresis product by flow cytometry (side and forward scatter). Format: cell-based. The conditions noted are these: FIG. 7 top panel; 14 mM Citrate (ACD-A), overnight, low/medium/high concentrations, compared to control with no inhibitors.
For data set [5], the system named is neutrophils. The following applies: cited from earlier work.
Data set [6] concerns granulocytes. The following applies: incubation; cited from earlier work.

Turning to `CCCCS(=O)(=O)N[C@@H](Cc1ccc(OCCCCC2CCNCC2)cc1)C(=O)O` [Tirofiban, tirofiban], the “formation of cell aggregates” value in data set [1] is “prevents the formation of cell aggregates”.
For the compound `c1ccc(CN(CCN(Cc2ccccn2)Cc2ccccn2)Cc2ccccn2)nc1` [TPEN, N,N,N′, N′-tetrakis(2-pyridylmethyl)ethylenediamine], in data set [2], the “apoptosis and cell death” value was “induce apoptosis and cell death”.
As to `CNc1ccc2oc(C[C@H]3O[C@@]4(CC[C@H]3C)O[C@H]([C@H](C)C(=O)c3ccc[nH]3)[C@H](C)C[C@H]4C)nc2c1C(=O)O` [A23187], the “viability (% CD45+ cells)” value in data set [3] is recorded as “affect viability”.
On to `O=C(O)CN(CCN(CC(=O)O)CC(=O)O)CCN(CC(=O)O)CC(=O)O` [DTPA, diethylenetriaminepentacetic acid], for which the “aggregation (singlets %)” value in data set [4] is on record as “very effective at all concentrations tested”. The “apoptosis and cell death” value in data set [2] was “induce apoptosis and cell death”.
For `COc1cc(C(=O)N2CC[C@@H](O)[C@@H](N)C2)cc2nc(-c3cc4ccccc4n3CC3CC3)n(C)c12` [GSK484], the “aggregation (singlets %)” value in data set [4] was “inhibit aggregation in a dose dependent manner”.
On the same count and under the same terms, the same measure for `S=C=Nc1cccc(NC(=S)NCCCCNC(=S)Nc2cccc(N=C=S)c2)c1` [MRS2578]: “inhibit aggregation in a dose dependent manner”.
On to `CCCCC(CC)CNC(=N)NC(=N)NCCCCCCNC(=N)NC(=N)NCC(CC)CCCC` (stereo not drawn) [Alexidine], for which the “NETosis after 2 h of incubation” value in data set [5] (after 2 h of incubation) is “induces NETosis”. Besides, the “NET formation induced by ionomycin” value in data set [5] (in neutrophils) is listed as “inhibits NET formation”. Further, the “basal level of netosis” value in data set [5] (without an increase of cytosolic calcium) was “inhibits the basal level of netosis”.
For the compound `C[C@@H](N)[C@H]1CC[C@H](C(=O)Nc2ccncc2)CC1` [Y-27632], in data set [5] (pre-treatment), the “NET formation induced by PMA and other challenges” value is “inhibits NET formation”. Besides, the chemotaxis of granulocytes result in data set [6] is given as “blocked the chemotaxis”.
